# Source: patent US10900018B2, “Means and methods for generation of breast stem cells” (Helmholtz Zentrum München—Deutsches Forschungszentrum Für …, priority 2015, dated 2021)
# Columns and labels:
# Format in all cases: cell-based, human
# [1] = test system: B+ cells (CD10+/CD49fhi/EpCAM−); experiment: Contraction of floating collagen I gels containing B+ cell derived TDLU-like structures
# Experimental: (§1) For contraction assays, 5×10^3 HMEC were plated or 3×10^3 sorted B+ cells/400 μl collagen gel and 1×10^4 LP cells/400 μl collagen gel. […] For inhibition of contraction experiments, 3×10^3 HMEC (Donor M10) were plated/400 μl collagen gel, and the gels were left attached to the culture dish. At day 13 of culture, when structures had formed, gels were detached and 10 μM Blebbistatin or 5 μM Y-27632 were added to the culture medium every 24 hours. To determine the number of cells per gel, collagen gels were minced using a scalpel, digested with 300 U/ml collagenase I (Sigma) for 1 hour at 37° C., followed by 0.15% trypsin (5 minutes at 37° C.), and filtered to obtain single cells. Cells were counted with a hemocytometer. Images of structures in the gels were acquired on a Leica DM IL LED microscope equipped with a HiPlan 10×/0.22 PH1 objective and images of whole gels were taken with a Zeiss SteREO Lumar.V12 microscope with a NeoLumar S 0.8×objective (6.4× Zoom).
# (§2) Size of gels, structures, and cells was determined with the ImageJ tool for measurement of areas. Quantification of structures was carried out using the ImageJ cell counter. Structures with at least two branching points were considered as branched. For branching point analysis, branches were traced, one main branch was set, and one branching point was counted for each side-branch.
# [2] = test system: LP cells (CD49f+/EpCAM+); experiment: Contraction of floating collagen I gels containing LP-derived spheres; conditions: 2.0 ng/ml TGF-β1 once
# Experimental: as §1, §2
# [3] = test system: freshly isolated HMEC; experiment: Structure formation by freshly isolated HMEC in floating collagen I gels
# Excerpt: Mammary gland tissue was obtained from healthy women undergoing reduction mammoplasty at the Nymphenburg Clinic for Plastic and Aesthetic Surgery (Christian Gabka), in accordance with the regulations of the ethics committee of the Ludwig-Maximilian University Munich (proposal 397-12). Single cell suspensions of primary HMEC were generated as previously described with minor modifications (Stingl et al., 2005). Briefly, the ductal tree was minced into about 1.0 mm^3 pieces and digested in collagenase I and hyaluronidase (both Sigma), and subsequently with Trypsin-EDTA and dispase (Life Technologies), and then cryopreserved. Before further processing, cells were filtered through a 40 μm strainer, to remove residual tissue fragments and cell aggregates. Cells were seeded in 2D on polystyrene cell culture plates or in collagen I gels in Mammary Epithelial Cell Growth Medium (MECGM, PromoCell) supplemented with 1% Pen/Strep (Invitrogen), 0.5% FCS (Pan Biotech), 3 μM Y-27632 (Biomol) and 10 μM Forskolin (Biomol), unless stated otherwise. After an establishment period of 5 days, medium was changed to MECGM supplemented with 1% Pen/Strep and 10 μM Forskolin, unless stated otherwise.
# Single cell suspensions containing the desired amount of cells were quickly mixed with neutralizing solution, and acidified rat tail collagen I (Corning) was added, resulting in a final collagen I concentration of 1.3 mg/ml. Next, the gel mixture was plated into siloxane-coated 24-well or 48-well plates. After polymerization of the gel, medium with supplements was carefully added and gels were detached from the well. Attached and attached-to-floating gels were prepared in uncoated 24-well plates. Cells were maintained for 8 up to 20 days (shorter periods for quantification and longer periods for long term treatments).
# Mammary gland tissue was obtained from healthy women undergoing reduction mammoplasty at the Nymphenburg Clinic for Plastic and Aesthetic Surgery (Prof. Christian Gabka), in accordance with the regulations of the ethics committee of the Ludwig-Maximilian University Munich (proposal 397-12). Single cell suspensions of primary HMEC were generated as previously described with minor modifications (Stingl et al., 2005). Briefly, the ductal tree was minced into about 1 mm^3 pieces and enzymatically digested in tissue digestion buffer (F12:DME/HEPES, 1.5% w/v BSA) supplemented with 1 μg/ml insulin, 300 U/ml collagenase and 100 U/ml hyaluronidase (all Sigma) at 37° C. over night. The stromal compartment was optionally separated by differential centrifugation and cryopreserved. The pellet enriched for epithelial cells was further dissociated in 0.15% Trypsin-EDTA and 5 mg/ml dispase (Life Technologies) and then cryopreserved. Before further processing, cells were filtered through a 40 μm strainer, to remove residual tissue fragments and cell aggregates. Freshly isolated primary HMEC were seeded in Mammary Epithelial Cell Growth Medium (MECGM, PromoCell) supplemented with 1% Pen/Strep (Invitrogen), 0.5% FCS (Pan Biotech), 3 μM Y-27632 (Biomol) and 10 μM Forskolin (Biomol), unless otherwise stated. After an establishment period of 5 days, medium was changed to MECGM supplemented 1% Pen/Strep and 10 μM Forskolin, unless otherwise stated. Upon establishment, medium was replaced every 3-4 days. Cells were maintained in 5% CO2, 3% O2 for the whole culture period. […]
# [4] = test system: HMEC; experiment: ELDA of branched structure-forming units in floating collagen gels after 2D-culture; conditions: 2D-culture in presence of 10 μM Forskolin, donor M4
# Excerpt: Mammary gland tissue was obtained from healthy women undergoing reduction mammoplasty at the Nymphenburg Clinic for Plastic and Aesthetic Surgery (Christian Gabka), in accordance with the regulations of the ethics committee of the Ludwig-Maximilian University Munich (proposal 397-12). Single cell suspensions of primary HMEC were generated as previously described with minor modifications ([…] et al., 2005). Briefly, the ductal tree was minced into about 1.0 mm^3 pieces and digested in collagenase I and hyaluronidase (both Sigma), and subsequently with Trypsin-EDTA and dispase (Life Technologies), and then cryopreserved. Before further processing, cells were filtered through a 40 μm strainer, to remove residual tissue fragments and cell aggregates. Cells were seeded in 2D on polystyrene cell culture plates or in collagen I gels in Mammary Epithelial Cell Growth Medium (MECGM, PromoCell) supplemented with 1% Pen/Strep (Invitrogen), 0.5% FCS (Pan Biotech), 3 μM Y-27632 (Biomol) and 10 μM Forskolin (Biomol), unless stated otherwise. After an establishment period of 5 days, medium was changed to MECGM supplemented with 1% Pen/Strep and 10 μM Forskolin, unless stated otherwise. […] Gels with at least one branched structure were counted as positive. […] Limiting dilutions were analyzed using a webtool, as described previously (Hu and Smyth, 2009).
# [5] = test system: HMEC; experiment: Inhibition of contraction: alveologenesis after detachment of attached collagen gels; conditions: donor M10
# Experimental: For contraction assays, 5×10^3 HMEC were plated or 3×10^3 sorted B+ cells/400 μl collagen gel and 1×10^4 LP cells/400 μl collagen gel. At day 12 of culture, […] TGF-β1 (R&D Systems) was added to the culture medium once. For inhibition of contraction experiments, 3×10^3 HMEC (Donor M10) were plated/400 μl collagen gel, and the gels were left attached to the culture dish. At day 13 of culture, when structures had formed, gels were detached and 10 μM Blebbistatin or 5 μM Y-27632 were added to the culture medium every 24 hours. To determine the number of cells per gel, collagen gels were minced using a scalpel, digested with 300 U/ml collagenase I (Sigma) for 1 hour at 37° C., followed by 0.15% trypsin (5 minutes at 37° C.), and filtered to obtain single cells. Cells were counted with a hemocytometer. Images of structures in the gels were acquired on a Leica DM IL LED microscope equipped with a HiPlan 10×/0.22 PH1 objective and images of whole gels were taken with a Zeiss SteREO Lumar.V12 microscope with a NeoLumar S 0.8×objective (6.4× Zoom).
# [6] = 10 μM Forskolin, continuous treatment, donor M8
molecule,measurement,setting,value
"TGF-β1: recombinant TGF-β1, morphogen that promotes contractility (R&D Systems)",average cell size in treated structures versus controls,"[1]; TGF-β1-treated B+ derived structures, donor M8, phalloidin F-actin staining",significantly smaller
same,increase of contraction of the gels,"[1]; one-time treatment with 2.0 ng/ml recombinant TGF-β1 at day 12 of culture, gel size 2 days later, donors M3, M10",approximately 2 fold
same,effect on size of gels,"[2]; LP-derived spheres, donor M10",did not have an effect
same,effect on size of gels,[2]; M3 luminal cells,slight contraction
C=C[C@@]1(C)CC(=O)[C@]2(O)[C@@]3(C)[C@@H](O)CCC(C)(C)[C@@H]3[C@H](O)[C@H](OC(C)=O)[C@@]2(C)O1 [Forskolin],increase of formation of TDLU-like branched structures,[3]; [6],approximately 12 fold
same,increase of formation of non-branched structures (mostly spheres),[3]; [6],approximately 1.5 fold
same,increase of overall branched structure-forming potential,[3]; [6],3 fold
same,cells giving rise to a TDLU-like structure (B-SFU),[4]; passage 1,1/290
same,cells giving rise to a TDLU-like structure (B-SFU),[4]; passage 3,1/250
Cc1ccc2c(c1)C(=O)C1(O)CCN(c3ccccc3)C1=N2 (stereo not shown) [Blebbistatin],acquisition of alveolar morphology after gel detachment,[5]; 10 μM Blebbistatin every 24 hours from detachment at day 13,prevented
C[C@@H](N)[C@H]1CC[C@H](C(=O)Nc2ccncc2)CC1 [Y-27632],increase of branched structure formation,"[3]; 3 μM Y-27632, added upon plating, removed after 5 days, floating collagen I gels, day 14, donor M8",approximately 5 fold
same,effect of continuous treatment on morphogenesis,"[3]; continuous Y-27632 after 5 days of initial culture, data not shown",dissolution of cell-cell adhesion
same,acquisition of alveolar morphology after gel detachment,[5]; 5 μM Y-27632 every 24 hours from detachment at day 13,prevented
